Source: PubChem BioAssay AID330 (DTP/NCI, 2004)
Several values for one entry are separate records, joined by “and”; a condition that tells them apart may be missing. Identical values can stand only once. Inconclusive results and toxic doses are left out. How the source made its calls: active means survival T/C of 150% or more; inactive means T/C below 125% in these data. Numbered stars: 1 amine (or outer) side, 2 acyl side, 3 side chain; on linkers, the order of the positions; unused ones are H or OH. Peptide text beside a SMILES is read from it. γGlu = O=C(O)[CH](CCC(=O)[*:2])N[*:1]

Test system: P388 leukemia ip, CD2F1 mice, survival T/C
Assay: NCI In Vivo Anticancer Drug Screen. Data for tumor model P388 Leukemia (intraperitoneal) in CD2F1 (CDF1) mice
Details: endpoint: median survival time, higher = longer survival
Procedure, shortened: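 Mice carrying the transplanted tumor received test compound or vehicle. Survival was recorded in each group, and the value is the treated-group measurement divided by that of the vehicle-treated control group.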

[1] = dose: 100.0 mg/kg/injection, schedule: Q01DX009 (ip), vehicle: saline
[2] = dose: 200.0 mg/kg/injection, schedule: Q01DX009 (ip), vehicle: saline
[3] = dose: 400.0 mg/kg/injection, schedule: Q01DX009 (ip), vehicle: saline
[4] = dose: 50.0 mg/kg/injection, schedule: Q01DX005 (ip), vehicle: Klucel (hydroxypropylcellulose) (HPC)
[5] = dose: 100.0 mg/kg/injection, schedule: Q01DX005 (ip), vehicle: Klucel (hydroxypropylcellulose) (HPC)
[6] = dose: 200.0 mg/kg/injection, schedule: Q01DX005 (ip), vehicle: Klucel (hydroxypropylcellulose) (HPC)
[7] = dose: 50.0 mg/kg/injection, schedule: Q01DX005 (ip), vehicle: saline
[8] = dose: 100.0 mg/kg/injection, schedule: Q01DX005 (ip), vehicle: saline
[9] = dose: 200.0 mg/kg/injection, schedule: Q01DX005 (ip), vehicle: saline
[10] = dose: 50.0 mg/kg/injection, schedule: Q01DX009 (ip), vehicle: saline with Tween-80
[11] = dose: 100.0 mg/kg/injection, schedule: Q01DX009 (ip), vehicle: saline with Tween-80
[12] = dose: 200.0 mg/kg/injection, schedule: Q01DX009 (ip), vehicle: saline with Tween-80
[13] = dose: 6.25 mg/kg/injection, schedule: Q01DX005 (ip), vehicle: Klucel (hydroxypropylcellulose) (HPC)
[14] = dose: 25.0 mg/kg/injection, schedule: Q01DX005 (ip), vehicle: Klucel (hydroxypropylcellulose) (HPC)
[15] = dose: 60.0 mg/kg/injection, schedule: Q01DX005 (ip), vehicle: Klucel (hydroxypropylcellulose) (HPC)
[16] = dose: 120.0 mg/kg/injection, schedule: Q01DX005 (ip), vehicle: Klucel (hydroxypropylcellulose) (HPC)
[17] = dose: 50.0 mg/kg/injection, schedule: Q01DX009 (ip), vehicle: saline
[18] = dose: 50.0 mg/kg/injection, schedule: Q01DX005 (ip), vehicle: saline with Tween-80
[19] = dose: 100.0 mg/kg/injection, schedule: Q01DX005 (ip), vehicle: saline with Tween-80
[20] = dose: 200.0 mg/kg/injection, schedule: Q01DX005 (ip), vehicle: saline with Tween-80
[21] = dose: 60.0 mg/kg/injection, schedule: Q01DX005 (ip), vehicle: saline with Tween-80
[22] = dose: 120.0 mg/kg/injection, schedule: Q01DX005 (ip), vehicle: saline with Tween-80
[23] = dose: 240.0 mg/kg/injection, schedule: Q01DX005 (ip), vehicle: saline with Tween-80
[24] = dose: 50.0 mg/kg/injection, schedule: Q01DX009 (ip), vehicle: Klucel (hydroxypropylcellulose) (HPC)
[25] = dose: 100.0 mg/kg/injection, schedule: Q01DX009 (ip), vehicle: Klucel (hydroxypropylcellulose) (HPC)
[26] = dose: 200.0 mg/kg/injection, schedule: Q01DX009 (ip), vehicle: Klucel (hydroxypropylcellulose) (HPC)

Measured: T/C

Nc1cccc(=O)[nH]1
inactive: [1] 95 % of control | [2] 109 % of control | [3] 113 % of control and 123 % of control

CCOC(=S)SCC(=O)C1(O)Cc2c(O)c3c(c(O)c2C(OC2CC(N)C(O)C(C)O2)C1)C(=O)c1c(OC)cccc1C3=O (stereo not drawn)
inactive: dose: 1.56 mg/kg/injection, schedule: Q01DX009 (ip), vehicle: other 120 % of control | dose: 3.13 mg/kg/injection, schedule: Q01DX009 (ip), vehicle: other 123 % of control | dose: 37.5 mg/kg/injection, schedule: Q04DX003 (ip), vehicle: other 121 % of control | dose: 75.0 mg/kg/injection, schedule: Q04DX003 (ip), vehicle: other 94 % of control | dose: 150.0 mg/kg/injection, schedule: Q04DX003 (ip), vehicle: other 99 % of control

NC(CSSCC(N)C(=O)c1ccccc1)C(=O)c1ccccc1 (stereo not drawn)
inactive: [4] 98 % of control | [5] 98 % of control | [6] 105 % of control

NC(CCC(=O)NC(CCC(=O)O)C(=O)NC(CCC(=O)O)C(=O)O)C(=O)O (stereo not drawn) (γGlu-Glu-Glu-OH; configuration not given here)
inactive: [7] 98 % of control | [8] 95 % of control | [9] 102 % of control

Cc1cc(N)c(C)c(Br)c1C
inactive: [10] 106 % of control | [11] 99 % of control | [12] 106 % of control

O=C(N/N=C/c1cccnc1)C(=O)Nc1cccc(C(F)(F)F)c1
inactive: [13] 95 % of control | dose: 12.5 mg/kg/injection, schedule: Q01DX005 (ip), vehicle: Klucel (hydroxypropylcellulose) (HPC) 89 % of control | [14] 87 % of control

CCCn1c(O)c(C(=O)CC)sc1=S
inactive: [15] 97 % of control | [16] 99 % of control

Cc1ccc(C2=C3CCCCC3c3cc(C)ccc32)cc1 (stereo not drawn)
inactive: [14] 91 % of control | [4] 97 % of control | [5] 90 % of control | [6] 90 % of control

C[CH2][Sn]([CH2]C)([S]c1nc(O)cc(=O)[nH]1)[S]c1nc(O)cc(=O)[nH]1
inactive: dose: 1.56 mg/kg/injection, schedule: Q01DX005 (ip), vehicle: Klucel (hydroxypropylcellulose) (HPC) 107 % of control | dose: 3.12 mg/kg/injection, schedule: Q01DX005 (ip), vehicle: Klucel (hydroxypropylcellulose) (HPC) 113 % of control and 119 % of control | [13] 118 % of control

CCOC(=O)CCC[n+]1cccc(C#N)c1
inactive: dose: 31.25 mg/kg/injection, schedule: Q01DX005 (ip), vehicle: Klucel (hydroxypropylcellulose) (HPC) 101 % of control | dose: 62.5 mg/kg/injection, schedule: Q01DX005 (ip), vehicle: Klucel (hydroxypropylcellulose) (HPC) 103 % of control | dose: 125.0 mg/kg/injection, schedule: Q01DX005 (ip), vehicle: Klucel (hydroxypropylcellulose) (HPC) 96 % of control

CC(C)N(CCNc1cccnc1[N+](=O)[O-])C(C)C
inactive: [17] 115 % of control | [1] 108 % of control | [2] 117 % of control

O=S(=O)(O)C(Nc1ccc(Cl)cc1)c1ccccc1 (stereo not drawn)
inactive: [10] 100 % of control | [11] 105 % of control | [12] 114 % of control

CC(=O)OC1SC(OC(C)=O)C2OC(=O)OC12 (stereo not drawn)
inactive: [10] 101 % of control | [11] 108 % of control | [12] 100 % of control

CCCNC(=O)NC1CC(=O)N(CCC)C1=O (stereo not drawn)
inactive: [18] 93 % of control | [19] 100 % of control | [20] 102 % of control

CCCCC(CCCCCC(CCCC)C1NCCc2cc(OC)c(OC)cc21)C1NCCc2cc(OC)c(OC)cc21 (stereo not drawn)
inactive: dose: 6.25 mg/kg/injection, schedule: Q01DX005 (ip), vehicle: saline with Tween-80 91 % of control | dose: 12.5 mg/kg/injection, schedule: Q01DX005 (ip), vehicle: saline with Tween-80 93 % of control | dose: 25.0 mg/kg/injection, schedule: Q01DX005 (ip), vehicle: saline with Tween-80 93 % of control

COc1ccc2nc3cc(Cl)ccc3c(NCC(O)CNc3c4ccc(Cl)cc4nc4ccc(OC)nc34)c2n1
inactive: [21] 92 % of control | [22] 90 % of control | [23] 90 % of control

COCCC1CN(C(C)C)C(=O)C1(c1ccccc1)c1ccccc1 (stereo not drawn)
inactive: [24] 106 % of control | [25] 92 % of control | [26] 108 % of control

CCOc1ccccc1NC1=C(Cl)C(=O)c2ccccc2C1=O
inactive: dose: 7.5 mg/kg/injection, schedule: Q01DX005 (ip), vehicle: saline with Tween-80 100 % of control | dose: 15.0 mg/kg/injection, schedule: Q01DX005 (ip), vehicle: saline with Tween-80 94 % of control | dose: 30.0 mg/kg/injection, schedule: Q01DX005 (ip), vehicle: saline with Tween-80 97 % of control | [21] 103 % of control

CC1(C)N=C(NN=C2CCCCC2)SP1(=O)NCC(=O)O (stereo not drawn)
inactive: [15] 101 % of control | [16] 100 % of control | dose: 240.0 mg/kg/injection, schedule: Q01DX005 (ip), vehicle: Klucel (hydroxypropylcellulose) (HPC) 101 % of control

Cc1nc2nc3n(c(=O)c2nc1C)CCCS3
inactive: [17] 105 % of control | [1] 103 % of control | [2] 113 % of control

O=C(c1ncccc1O)N1CCCCC1
inactive: dose: 12.5 mg/kg/injection, schedule: Q01DX009 (ip), vehicle: distilled water + Tween-80 88 % of control | dose: 50.0 mg/kg/injection, schedule: Q01DX009 (ip), vehicle: distilled water + Tween-80 92 % of control | dose: 100.0 mg/kg/injection, schedule: Q01DX009 (ip), vehicle: distilled water + Tween-80 99 % of control | dose: 200.0 mg/kg/injection, schedule: Q01DX009 (ip), vehicle: distilled water + Tween-80 100 % of control

COc1ccc(-n2nc3c(c2-c2cccnc2)CCCc2ccccc2-3)cc1
inactive: [18] 95 % of control | [19] 106 % of control | [20] 101 % of control

Cc1ccnc(Nc2nnc(Nc3cc(C)ccn3)c3ccccc23)c1
inactive: [18] 100 % of control | [19] 97 % of control | [20] 97 % of control

CC(C)CN1C(=O)C2C3CCC(O3)C2C1=O (stereo not drawn)
inactive: [21] 91 % of control | [22] 91 % of control | [23] 91 % of control

CC(C)(C)OC(=O)NCC(=O)NNC(=O)OC(C)(C)C
inactive: [1] 118 % of control | [2] 118 % of control | [3] 118 % of control

Fc1ccc(-c2cc(-c3cccs3)cc(-c3ccccc3)n2)cc1
inactive: [24] 121 % of control | [25] 102 % of control | [26] 100 % of control

CC(NCCCCNC(C)C(=O)O)C(=O)O (stereo not drawn)
inactive: [7] 94 % of control | [8] 103 % of control | [9] 102 % of control

COC(=O)C(=O)C(C#N)c1ccc(C)cc1 (stereo not drawn)
inactive: [21] 104 % of control | [22] 104 % of control | [23] 103 % of control
